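48-hour exposure; five concentrations; linearly interpolated endpoints. GI50: concentration for 50% inhibition of growth. TGI is the concentration that stops growth completely.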
Experiments:
Assay in all cases: NCI-60 cell line screen, 48 h
[1] = system: COLO 205 colon
[2] = system: LOX IMVI melanoma
[3] = system: MDA-MB-231 breast
[4] = system: SK-OV-3 ovarian
[5] = system: OVCAR-5 ovarian
[6] = system: RPMI-8226 leukemia
[7] = system: U251 CNS
[8] = system: HOP-92 NSCLC
[9] = system: HT29 colon
[10] = system: MCF7 breast
[11] = system: SW-620 colon
[12] = system: SNB-19 CNS
[13] = system: EKVX NSCLC
[14] = system: MOLT-4 leukemia
[15] = system: KM12 colon
[16] = system: OVCAR-4 ovarian
[17] = system: BT-549 breast
[18] = system: A498 renal
[19] = system: CAKI-1 renal
[20] = system: SF-295 CNS
[21] = system: CCRF-CEM leukemia
[22] = system: SF-268 CNS
[23] = system: NCI-H522 lung
[24] = system: PC-3 prostate
[25] = system: MDA-MB-435
[26] = system: UACC-257 melanoma
[27] = system: SK-MEL-28 melanoma
[28] = system: HCT-116 colon
[29] = system: HS 578T breast
[30] = system: OVCAR-8 ovarian
[31] = system: SN12C renal
[32] = system: ACHN renal
[33] = system: UACC-62 melanoma
[34] = system: MALME-3M melanoma
[35] = system: T-47D breast
[36] = system: SK-MEL-2 melanoma
[37] = system: SR leukemia
[38] = system: SF-539 CNS
[39] = system: HL-60(TB) leukemia
[40] = system: OVCAR-3 ovarian
[41] = system: NCI-H23 lung
[42] = system: DU-145 prostate
[43] = system: A549 NSCLC
[44] = system: K-562 leukemia
[45] = system: SK-MEL-5 melanoma
[46] = system: HCT-15 colon
[47] = system: RXF 393 renal
[48] = system: NCI-H460 lung
[49] = system: IGROV1 ovarian
[50] = system: NCI/ADR-RES ovarian
[51] = system: HCC-2998 colon
[52] = system: HOP-62 NSCLC
[53] = system: SNB-75 CNS
[54] = system: TK-10 renal
[55] = system: NCI-H226 lung
[56] = system: 786-0 renal
[57] = system: M14 melanoma
[58] = system: UO-31 renal

COc1cccc(C2SC(C)C(=O)N2CCc2cccs2)c1 (stereo not drawn)
GI50 [1]: 1470 nM | TGI [1]: 2820 nM | GI50 [2]: 2480 nM | TGI [2]: 11600 nM | GI50 [3]: 2720 nM | TGI [3]: 13900 nM | GI50 [4]: 2950 nM | TGI [4]: 13200 nM | GI50 [5]: 4050 nM | TGI [5]: 20000 nM | GI50 [6]: 1880 nM | TGI [6]: 5390 nM | GI50 [7]: 3100 nM | TGI [7]: 11200 nM | GI50 [8]: 1160 nM | TGI [8]: 4370 nM | GI50 [9]: 3240 nM | TGI [9]: 12000 nM | GI50 [10]: 3020 nM | TGI [10]: 12700 nM | GI50 [11]: 3480 nM | TGI [11]: 15700 nM | GI50 [12]: 2960 nM | TGI [12]: 13700 nM | GI50 [13]: 1490 nM | TGI [13]: 10700 nM | GI50 [14]: 2340 nM | TGI [14]: 10700 nM | GI50 [15]: 2670 nM | TGI [15]: 8990 nM | GI50 [16]: 2250 nM | TGI [16]: 11200 nM | GI50 [17]: 2690 nM | TGI [17]: 9110 nM | GI50 [18]: 1250 nM | TGI [18]: 10500 nM | GI50 [19]: 2070 nM | TGI [19]: 10500 nM | GI50 [20]: 2680 nM | TGI [20]: 11200 nM | GI50 [21]: 3010 nM | TGI [21]: 22300 nM | GI50 [22]: 2720 nM | TGI [22]: 13000 nM | GI50 [23]: 1710 nM | TGI [23]: 5150 nM | GI50 [24]: 2050 nM | TGI [24]: 8650 nM | GI50 [25]: 2160 nM | TGI [25]: 7280 nM | GI50 [26]: 3170 nM | TGI [26]: 10300 nM | GI50 [27]: 3600 nM | TGI [27]: 14000 nM | GI50 [28]: 1890 nM | TGI [28]: 8360 nM | GI50 [29]: 2560 nM | TGI [29]: 26800 nM | GI50 [30]: 3490 nM | TGI [30]: 14300 nM | GI50 [31]: 3150 nM | TGI [31]: 13500 nM | GI50 [32]: 3340 nM | TGI [32]: 13800 nM | GI50 [33]: 1760 nM | TGI [33]: 10700 nM | GI50 [34]: 2190 nM | TGI [34]: 8090 nM | GI50 [35]: 1780 nM | TGI [35]: 11600 nM | GI50 [36]: 2770 nM | TGI [36]: 11500 nM | GI50 [37]: 2500 nM | TGI [37]: 15500 nM | GI50 [38]: 3600 nM | TGI [38]: 13600 nM | GI50 [39]: 2590 nM | TGI [39]: 7490 nM | GI50 [40]: 2040 nM | TGI [40]: 7600 nM | GI50 [41]: 2620 nM | TGI [41]: 12100 nM | GI50 [42]: 3950 nM | TGI [42]: 14900 nM | GI50 [43]: 3390 nM | TGI [43]: 12700 nM | GI50 [44]: 2810 nM | TGI [44]: > 100000 nM | GI50 [45]: 1580 nM | TGI [45]: 2960 nM | GI50 [46]: 2750 nM | TGI [46]: 12500 nM | GI50 [47]: 4260 nM | TGI [47]: 16400 nM | GI50 [48]: 2830 nM | TGI [48]: 11000 nM | GI50 [49]: 2010 nM | TGI [49]: 15700 nM | GI50 [50]: 2600 nM | TGI [50]: 12700 nM | GI50 [51]: 2930 nM | TGI [51]: 12300 nM | GI50 [52]: 3120 nM | TGI [52]: 14900 nM | GI50 [53]: 3200 nM | TGI [53]: 15700 nM | GI50 [54]: 2790 nM | TGI [54]: 11700 nM | GI50 [55]: 3150 nM | TGI [55]: 17200 nM

NCCCN1CCN(CCCNc2nc3ccccc3c3[nH]c4ccccc4c23)CC1
GI50 [1]: 214 nM | TGI [1]: 1050 nM | GI50 [2]: 409 nM | TGI [2]: 1810 nM | GI50 [3]: 456 nM | TGI [3]: 1720 nM | GI50 [4]: 6700 nM | TGI [4]: 41400 nM | GI50 [5]: 292 nM | TGI [5]: 1480 nM | GI50 [6]: 241 nM | TGI [6]: 817 nM | GI50 [56]: 421 nM | TGI [56]: 2940 nM | GI50 [7]: 373 nM | TGI [7]: 4540 nM | GI50 [8]: 346 nM | TGI [8]: 2100 nM | GI50 [9]: 212 nM | TGI [9]: 1990 nM | GI50 [10]: 181 nM | TGI [10]: 1330 nM | GI50 [11]: 326 nM | TGI [11]: 7660 nM | GI50 [12]: 340 nM | TGI [12]: 2070 nM | GI50 [13]: 1310 nM | TGI [13]: 6220 nM | GI50 [14]: 155 nM | TGI [14]: 4020 nM | GI50 [15]: 415 nM | GI50 [16]: 414 nM | TGI [16]: 1770 nM | GI50 [17]: 2120 nM | TGI [17]: 5720 nM | GI50 [18]: 1620 nM | TGI [18]: 3930 nM | GI50 [57]: 1270 nM | TGI [57]: 2760 nM | GI50 [19]: 414 nM | TGI [19]: 3450 nM | GI50 [20]: 474 nM | TGI [20]: 1830 nM | GI50 [21]: 385 nM | GI50 [22]: 316 nM | TGI [22]: 1940 nM | GI50 [23]: 242 nM | TGI [23]: 1310 nM | GI50 [24]: 437 nM | TGI [24]: 2980 nM | GI50 [25]: 651 nM | TGI [25]: 2410 nM | GI50 [26]: 2510 nM | TGI [26]: 5720 nM | GI50 [27]: 888 nM | TGI [27]: 2320 nM | GI50 [28]: 337 nM | TGI [28]: 2700 nM | GI50 [29]: 521 nM | TGI [29]: 2890 nM | GI50 [58]: 771 nM | TGI [58]: 11800 nM | GI50 [30]: 131 nM | TGI [30]: 3880 nM | TGI [31]: 1050 nM | GI50 [32]: 378 nM | TGI [32]: 3750 nM | GI50 [33]: 541 nM | TGI [33]: 1100 nM | GI50 [34]: 2300 nM | TGI [34]: 4960 nM | GI50 [35]: 561 nM | TGI [35]: 6850 nM | GI50 [36]: 567 nM | TGI [36]: 1100 nM | GI50 [37]: 352 nM | TGI [37]: 71900 nM | GI50 [38]: 438 nM | TGI [38]: 1500 nM | GI50 [39]: 425 nM | TGI [39]: 3260 nM | GI50 [40]: 659 nM | TGI [40]: 4580 nM | GI50 [41]: 387 nM | TGI [41]: 1440 nM | GI50 [42]: 299 nM | TGI [42]: 7830 nM | GI50 [43]: 323 nM | TGI [43]: 2370 nM | GI50 [44]: 71.5 nM | TGI [44]: 43100 nM | GI50 [45]: 1140 nM | TGI [45]: 2530 nM | GI50 [46]: 436 nM | TGI [46]: 7830 nM | GI50 [47]: 429 nM | TGI [47]: 1310 nM | GI50 [48]: 320 nM | TGI [48]: 1420 nM | GI50 [49]: 638 nM | TGI [49]: 4380 nM | GI50 [50]: 3100 nM | TGI [50]: 22000 nM | GI50 [51]: 89.5 nM | TGI [51]: 758 nM | GI50 [52]: 260 nM | TGI [52]: 1080 nM | GI50 [53]: 691 nM | TGI [53]: 1990 nM | GI50 [54]: 810 nM | TGI [54]: 11100 nM | GI50 [55]: 442 nM | TGI [55]: 1100 nM
